Laboratory results from patent publication US20260356887A1, “NOVEL MYD88 INHIBITOR FOR TREATMENT OF AUTOIMMUNE DISEASES AND USES THEREOF” (S&K THERAPEUTICS, priority 2023, published 2026).
Where a name gives a salt, the structure may show the parent alone. No end group written: not given here.

Key:
[1] = tested on: C57BL/6 mice with IMQ-induced psoriasis; assay: Imiquimod-induced psoriasis model; assay type: in vivo, mouse; details: MyDIP2-4 5 and 20 mg/kg i.p., dexamethasone 10 mg/kg oral
Description: Six-week-old female C57BL/6 mice (Orient Bio, Seongnam, Korea) were housed under specific pathogen-free conditions on a standard laboratory ad libitum diet. Animal experiments related to psoriasis were approved by the Animal Care and Use Committee [NDIC Approval Nos. 12022111 (EAE) and I2022053-3 (psoriasis), Hwaseong, Korea] and were performed in accordance with relevant guidelines and regulations.
Disease was induced by topical application of Aldara cream (Donga ST; Seoul, Korea) containing 5% imiquimod onto the back of six-week-old female C57BL/6 mice for 5 consecutive days. MyDIP2-4 was administered intraperitoneally at doses of 5 and 20 mg/kg. As a positive control group, dexamethasone (Sigma-Aldrich; cat. No. D1756) was administered orally at a dose of 10 mg/kg. Five days later, mice were sacrificed under respiratory anesthesia, and skin lesions were collected for histological examination.
An objective scoring system to quantify the severity of back skin inflammation was established based on the PASI scoring system, a widely used clinical tool to assess psoriasis severity. On a scale from 0 to 4, factors such as erythema, scaling, wrinkles, and thickness were individually assessed as follows: 0, none; 1, weak; 2, moderate; 3, significant; and 4, very evident. Under the careful supervision of experienced investigators, erythema, scaling, and thickness were graded. The cumulative score (erythema+scaling+thickness score, scale 0-12) indicates the severity of psoriasis symptoms.
Skin tissue was removed, the upper layer was fixed in neutral formalin, and H&E staining and IHC were performed. Epidermal thickness of skin tissue was measured using H&E staining. IL-17, KI-67, and IL-23 levels were measured using IHC with the aid of antibodies against IL-17A (Thermo Fisher Scientific; cat. No. PA5-79470), KI-67 (Cell Signaling; cat. No. 12202), and IL-23 (Novus Biologicals; cat. No. NBP1-76697).
To establish an IMQ-induced psoriasis model, Aldara cream containing 5% imiquimod was topically applied onto the back of six-week-old female C57BL/6 mice for 5 consecutive days. […]

[2] = tested on: C57BL/6 mice with MOG35-55-induced EAE; assay: MOG35-55-induced experimental autoimmune encephalomyelitis (EAE) model; assay type: in vivo, mouse
Description: Eight-week-old female C57BL/6 (B6) mice (Orient Bio, Korea) were maintained in a specific pathogen-free environment on a standard laboratory ad libitum diet. All experiments were approved by the Animal Care and Use Committee [NDIC Approval Nos. 12022111 (EAE) and I2022053-3 (psoriasis), Hwaseong, Korea] and were performed in accordance with relevant guidelines and regulations.
EAE was induced in mice using the Hooke Kit (MOG35-55/complete Freund's adjuvant (CFA) Emulsion PTX (Hooke Laboratories, LLC, Lawrence, MA, USA)) according to the manufacturer's protocol. Mice were immunized subcutaneously with myelin oligodendrocyte glycoprotein emulsified in complete Freund's adjuvant. […]
Mice were weighed and examined daily, and EAE symptoms were assessed using the following standard scoring system: 0-6: 0, no symptoms; 1, limp tail; 2, limp tail and hind limb paralysis; 3, paralysis of one or more hind limbs; 4, complete hind limb and hindquarter paralysis; 5, hindquarter paralysis with forelimb paralysis; and 6, death. […]
To investigate the therapeutic potential of MyDIP2-4 on EAE progression, mice were immunized with MOG35-55 peptide in CFA and pertussis toxin was administered once on day 0 and again 24 hours later. […] Mouse body weight and EAE clinical scores were recorded three times a week: days 0, 2, 5, 7, 9, 12, 14, 16, 19, and 21.

human MyD88 protein = human MyD88 protein (Homo sapiens, UniProt Q99836); assay: Surface plasmon resonance (SPR) analysis of MyDIP2-4 and MyD88; assay type: binding; details: MyD88 immobilized on NTA chip, MyDIP2-4 0.8 to 12.8 μM in PBS
Description: The biophysical interactions between MyDIP2-4 and MyD88 were evaluated using SPR analysis in an iMSPR-mini system (icluebio, Seongnam, Korea). MyD88 protein was immobilized on the surface of a nitrilotriacetic acid (NTA) sensor chip at a concentration of 50 μg/ml. MyDIP2-4 was injected into the MyD88-binding chip at various concentrations ranging from 0.8 to 12.8 μM (dissolved in PBS) at a flow rate of 50 μl/min. PBS was used as a running buffer and injected into the empty channel as a reference. Experiments were performed twice using freshly prepared reagents, and data were analyzed using TraceDrawer software (Ridgeview Instruments; Uppsala, Sweden).
SPR technology was used to evaluate the biophysical interaction between the MyDIP2-4 peptide and the MyD88 protein. SPR analysis involves immobilizing the MyD88 protein on the surface of a sensor chip and then flowing the MyDIP2-4 peptide at various concentrations.

RAW 264.7 cells = assay: Macrophage viability (MTT assay) in RAW 264.7 cells; assay type: cell-based; details: mouse macrophages; 50 μM; 24 hours
Description: THP-1 and RAW 264.7 cells (ATCC, Manassas, VA, USA) were cultured at 37 °C and 5% CO2 in RPMI (Roswell Park Memorial Institute) medium and Dulbecco's modified Eagle medium supplemented with fetal bovine serum (FBS, 10%), 4 mM L-glutamine, 1 mM sodium pyruvate, penicillin (100 units/ml), and streptomycin (0.1 mg/ml). THP-1 cells, which are monocytes, were differentiated into macrophages by treatment with 80 nM phorbol 12-myristate 13-acetate (PMA, Sigma-Aldrich) for 24 hours. The cells were cultured at 37 °C and 5% CO2 in a humidified incubator (Thermo Fisher Scientific, Inc.), and the medium was replaced every 18 hours.
To evaluate the cytotoxic effect of the peptide on mouse and human macrophages, RAW 264.7 cells and THP-1-derived macrophages were seeded at respective densities of 5×10^4/well and 2×10^5/well in 96-well plates (BD Biosciences, San Jose, CA, USA) followed by culture overnight at 37 °C in a humidified incubator. After treating the cells with the peptide at the corresponding concentration for 24 hours, viability was measured using 3-(4,5-dimethylthiazol-2-yl)-2,5-diphenyltetrazolium bromide (MTT) assay (Sigma-Aldrich). […] Relative cell viability was calculated by measuring absorbance at 570 nm, and the untreated control group was designated as having a relative viability of 100%. […]

Chain of human MyD88 protein (Q99836 whole entry): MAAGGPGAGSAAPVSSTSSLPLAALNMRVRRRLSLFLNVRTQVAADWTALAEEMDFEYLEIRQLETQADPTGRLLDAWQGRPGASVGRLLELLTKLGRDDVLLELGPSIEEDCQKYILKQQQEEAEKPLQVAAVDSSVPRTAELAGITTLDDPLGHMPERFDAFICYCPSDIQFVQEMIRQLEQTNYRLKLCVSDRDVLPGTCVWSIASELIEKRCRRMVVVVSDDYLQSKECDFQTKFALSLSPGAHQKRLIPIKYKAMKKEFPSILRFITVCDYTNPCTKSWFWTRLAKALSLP

C[C@@H]1C[C@H]2[C@@H]3CCC4=CC(=O)C=C[C@]4(C)[C@@]3(F)[C@@H](O)C[C@]2(C)[C@@]1(O)C(=O)CO [dexamethasone]
epidermal thickness ([1]; H&E): significantly reduced
IL-17 expression in skin tissue ([1]; IHC): did not inhibit
KI-67 in skin tissue (KI-67-positive cells) ([1]; IHC): significant decrease

COC(=O)/C=C/C(=O)OC [DMF, dimethyl fumarate]
EAE clinical score compared to MyDIP2-4 ([2]; day 21, DMF 100 mg/kg vs MyDIP2-4 40 mg/kg): reduced clinical scores

RQIKIWFQNRRMKWKKWLWFILFKKLSLP [MyDIP2-4]
body weight compared to DMF-treated mice (EAE) ([2]; MyDIP2-4 40 mg/kg i.p. once daily, DMF 100 mg/kg): no difference in body weight
kon (human MyD88 protein; read-out: rate constant for association (Ka)): 3.7 M⁻¹ s⁻¹
koff (human MyD88 protein; read-out: rate constant for dissociation (Kd)): 1.37e-07 s⁻¹
cytotoxicity (MTT) (RAW 264.7 cells): not cytotoxic
